Test results taken from patent US8168596B2, “Use of cycloartane compounds for treating arthritis” (NuLiv Holding Inc., priority 2008, dated 2012).

Legend:
MMP1 = assay: Western blotting of MMP1 protein expression induced by IL-1β, PMA or TNF-α in SW1353 cells (Example 3); format: cell-based, human; details: AS4 0.01, 0.1 or 1 μM; PMA 100 ng/mL, IL-1β 10 ng/mL, TNF-α 10 ng/mL, 24 h
Protocol: Western blotting analysis was carried out based on the following procedure. Cells were washed and lysed in 0.2 mL of lysis buffer (1% NP-40, 50 mM Tris-HCl, pH 7.4, 180 mM NaCl, 1 mM EDTA, 1 mM PMSF, 1 mM NaF, 10 mM Na3VO4) for 30 min at 4° C. After centrifugation at 17500 g for 15 min, the supernatants of cell lysate were collected. Protein concentrations of the samples were measured using the bicinchoninic acid (BCA) protein assay kit according to the manufacturer's protocol (Pierce, Rockford, Ill., USA). Equal amounts of protein samples of concentrated conditioned medium (100 μg) or cell lysate supernatants (50 μg) were mixed with an appropriate volume of 4×SDS sampling buffer and separated on a 8% SDS-PAGE gel. The protein bands separated on the SDS-PAGE gel were blotted onto a polyvinylidene fluoride (PVDF) membrane. The blotted PVDF membrane was washed twice and blocked in freshly prepared Tris-buffered saline (TBS) containing 0.1% Tween-20 and 7% skim milk (TBST) for 2 hours at room temperature. The PVDF membrane was then incubated with a primary antibody against MMP1 protein (Santa Cruz Biotechnology, Santa Cruz, Calif.) for 18 hours at 4° C. Horseradish peroxidase-conjugated anti-goat antibody was used as the secondary antibody. Signals were visualized by an enhanced chemiluminescence kit (Clonetech, Palo Alto, Calif., USA) followed by exposure to X-ray films. […]

MMP-1 [1] = assay: Western blot of MMP-1 in PMA- or IL-1β-pre-treated SW1353 cells (Example 6); format: cell-based, human; details: 48 h
Protocol: The cells were then plated on 6-cm dishes at a density of 1×10^6 cells/dish for 24 hours prior to any treatment. At the beginning of the experiment, the cells were pre-treated with 100 ng/mL PMA or 10 ng/mL IL-1β for 24 hours. The cells were then treated 0.1 μM Dexamethasone with, various astragaloside compounds (0.1 μM) or extracts of Astragalus membranaceous (1 μg/mL) at indicated dosages for another 48 hours. For control sample, 0.1% DMSO was used as a negative control for these experiments. The conditioned culture mediums were then centrifuged, 2-fold concentrated and collected for assay of collagens or MMPs secreted into the culture medium.
Western blotting analysis was carried out on both cultured medium and cell lysates, as follows. The cells were washed and lysed in 0.2 mL of lysis buffer (1% NP-40, 50 mM Tris-HCl, pH 7.4, 180 mM NaCl, 1 mM EDTA, 1 mM PMSF, 1 mM NaF, 10 mM Na3VO4) for 30 min at 4° C. After centrifuging at 17500 g for 15 min, the supernatants of cell lysate were also collected. Protein concentration of the samples were measured using the bicinchoninic acid (BCA) protein assay kit according to the manufacturer's protocol (Pierce, Rockford, Ill., USA). Equal amount of protein samples of concentrated conditioned medium (100 μg) or cell lysate supernatants (50 μg) were mixed with an appropriate volume of 4×SDS sampling buffer and separated by 8% SDS-PAGE gel. The protein bands separated in the SDS-PAGE gel were blotted onto a polyvinylidene fluoride (PVDF) membrane. The blotted PVDF membrane was washed twice and blocked in freshly prepared Tris-buffered saline (TBS) containing 0.1% Tween-20 and 7% skim milk (TBST) for 2 hours at room temperature. The PVDF membrane was then incubated with either antibodies against collagen I and III or the housekeeping protein α-tubulin (Santa Cruz Biotechnology, Santa Cruz, Calif.) for 18 hours at 4° C. Horseradish peroxidase-conjugated anti-goat antibody was used as secondary antibody. Signals were visualized by an enhanced chemiluminescence kit (Clonetech, Palo Alto, Calif., USA) followed by exposure to X-ray films.

MMP-1 [2] = assay: Zymography of MMP-1 from pre-treated SW1353 cells; format: cell-based, human; details: PMA-pre-treated SW1353; 0.1 μM, 24 h
Protocol: (§1) At the beginning of the experiment, the cells were pre-treated with 100 ng/mL PMA or 10 ng/mL IL-1β for 24 hours. The cells were then treated with 0.1 μM Dexamethasone, various astragaloside compounds (0.1 μM) or extracts of Astragalus membranaceous (1 μg/mL) at indicated dosages for another 24 hours. For control sample, 0.1% DMSO was used as a negative control for these experiments. The conditioned culture mediums were then centrifuged, 2-fold concentrated and collected for assay of collagens or MMPs secreted into the culture medium.
(§2) The proteolytic activities of MMPs from SW1353 cells were measured essentially as described previously (Circ Res, 1999; 85:906-911). The cells were lysed in lysis buffer (1% Triton X-100, 50 mM Tris-Cl, pH 7.4, 180 mM NaCl, 1 mM EDTA). The samples were measured for their protein concentration using the bicinchoninic acid (BCA) protein assay kit as described. Samples of concentrated conditioned medium and cell lysates were mixed with non-reducing electrophoresis loading buffer and subjected to electrophoresis under non-reducing conditions. The electrophoresis was carried out on a 10% SDS-PAGE co-polymerized with 2 mg/mL gelatin or casein (Sigma, St. Louis, Mo. USA). For zymographic analysis of pro-MMP-2 and activated MMP-2, the total 20 μg of culture medium were used for electrophoresis. Following electrophoresis, renaturation of the proteins was achieved by incubating the gels twice in 25 g/L Triton X-100 at room temperature for 10 min. Subsequently the gels were incubated in 50 mM Tris-HCl, pH 7.5 containing 0.2 M NaCl, 0.02% Brij35 and 10 mM CaCl2 at 37° C. for 18 hours. After the gels were stained with Coomassie Brilliant Blue R-250 and destained, zones of proteolytic activities became visible as transparent bands in the stained gel. In order to obtain higher sensitivity, the gels were further destained in a solution of 1% Triton X-100 (1 to 2 hours). This procedure increased the signal-to-noise ratio, allowing the visualization of faint gelatinase bands at 92 kDa, 125 kDa and greater than 200 kDa. Zymograms were read using a Molecular Dynamics (Sunnyvale, Calif., USA) computing laser densitometer with Image Quant software.

MMP-2 = assay: Zymography of MMP-2 from pre-treated SW1353 cells; format: cell-based, human; details: PMA-pre-treated SW1353; 0.1 μM, 24 h
Protocol: as §1, §2

MMP-9 = assay: Zymography of MMP-9 from pre-treated SW1353 cells; format: cell-based, human; details: PMA-pre-treated SW1353; 0.1 μM, 24 h
Protocol: as §1, §2

MMP-13 = assay: Western blot of MMP-13 in pre-treated human chondrocytes (HCHs); format: cell-based; details: IL-1β-pre-treated HCH culture medium; compounds 0.1 μM, 48 h

CC(C)(O)[C@@H]1CC[C@](C)([C@H]2[C@@H](O)C[C@@]3(C)[C@@H]4C[C@H](O[C@@H]5O[C@H](CO)[C@@H](O)[C@H](O)[C@H]5O)[C@H]5C(C)(C)[C@@H](O[C@@H]6OC[C@@H](O)[C@H](O)[C@H]6O)CC[C@@]56C[C@@]46CC[C@]23C)O1 [AS4, Astragaloside IV]
level of expression of MMP1 protein with different inducers (MMP1): inhibited
MMP-1, Western blot, relative to Ctrl 1.00 (MMP-1 [1]; IL-1β-pre-treated SW1353 cell extract, compounds 0.1 μM): 0.22
MMP-1, Western blot, relative to Ctrl 1.00 (MMP-1 [1]; PMA-pre-treated SW1353 cell extract, 0.1 μM): 0.74
MMP-1, Zymography, relative to Ctrl 1.00 (MMP-1 [2]): 0.68
MMP-2, Zymography, relative to Ctrl 1.00 (MMP-2): 1.01
MMP-9, Zymography, relative to Ctrl 1.00 (MMP-9): 1.04
MMP-13, Western blot, relative to Ctrl 1.00 (MMP-13): 0.55
